Laboratory results reported in the supplement of paper PMC10307832.

Columns and labels:
Test in all cases: relative viability (nuclei count vs DMSO), 5 days (fraction); higher = more cells survive
[1] = compound: C1CSC2=C(C(=O)N1)SC3=C2C=C(C=C3)O [kb NB 142-70] + COc1cccc2cc(-c3nc([C@H]4CC[C@H](C(=O)O)CC4)n4ncnc(N)c34)[nH]c12 [OSI-027] (partner 0.5 µM)
Method in brief: (§1)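 Five library-drug doses in √10 steps were combined with a fixed anchor-drug dose, or a single drug was given alone, by pin tool to lung cancer cell lines in 1536-well plates the day after seeding. Nuclei were stained and counted after 5 days. Relative viability is the nuclei count in treated wells over that in vehicle wells, taken as the median of duplicate plates.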

[2] = compound: C1CSC2=C(C(=O)N1)SC3=C2C=C(C=C3)O [kb NB 142-70] + C[C@@H](Oc1cc(-c2cnn(C3CCNCC3)c2)cnc1N)c1c(Cl)ccc(F)c1Cl [Crizotinib] (partner 1 µM)
Method in brief: as §1

[3] = compound: C1CSC2=C(C(=O)N1)SC3=C2C=C(C=C3)O [kb NB 142-70] + Cc1nc(Nc2ncc(C(=O)Nc3c(C)cccc3Cl)s2)cc(N2CCN(CCO)CC2)n1 [Dasatinib] (partner 0.075 µM)
Method in brief: as §1

[4] = compound: NCC(=O)Nc1ccc(-n2nc(C(F)(F)F)cc2-c2ccc3c(ccc4ccccc43)c2)cc1 + CC(=O)Nc1cccc(-n2c(=O)n(C3CC3)c(=O)c3c(Nc4ccc(I)cc4F)n(C)c(=O)c(C)c32)c1 [Trametinib] (partner 0.02 µM)
Method in brief: as §1

[5] = compound: NCC(=O)Nc1ccc(-n2nc(C(F)(F)F)cc2-c2ccc3c(ccc4ccccc43)c2)cc1 + COc1cc2c(Oc3ccc(NC(=O)C4(C(=O)Nc5ccc(F)cc5)CC4)cc3F)ccnc2cc1OCCCN1CCOCC1 [Foretinib] (partner 0.25 µM)
Method in brief: as §1

## NCI-H1915
[1]; first compound 0.1 µM
  relative viability: 0.648
[1]; first compound 1 µM
  relative viability: 0.619
[1]; first compound 3.162 µM
  relative viability: 0.396
[2]; first compound 0.1 µM
  relative viability: 0.887
[2]; first compound 1 µM
  relative viability: 0.915
[2]; first compound 3.162 µM
  relative viability: 0.481
[3]; first compound 0.1 µM
  relative viability: 0.323
[3]; first compound 1 µM
  relative viability: 0.339
[3]; first compound 3.162 µM
  relative viability: 0.248
[4]; first compound 0.02 µM
  relative viability: 0.284
[4]; first compound 0.06325 µM
  relative viability: 0.314
[4]; first compound 0.2 µM
  relative viability: 0.31
[4]; first compound 0.6325 µM
  relative viability: 0.296
[4]; first compound 2 µM
  relative viability: 0.322
[5]; first compound 0.02 µM
  relative viability: 1.12
[5]; first compound 0.06325 µM
  relative viability: 1.12
[5]; first compound 0.2 µM
  relative viability: 1.09
[5]; first compound 0.6325 µM
  relative viability: 1.06
[5]; first compound 2 µM
  relative viability: 1.11

## NCI-H2023
[1]; first compound 0.1 µM
  relative viability: 0.485
[1]; first compound 1 µM
  relative viability: 0.417
[1]; first compound 3.162 µM
  relative viability: 0.258
[2]; first compound 0.1 µM
  relative viability: 0.699
[2]; first compound 1 µM
  relative viability: 0.761
[2]; first compound 3.162 µM
  relative viability: 0.551
[3]; first compound 0.1 µM
  relative viability: 0.51
[3]; first compound 1 µM
  relative viability: 0.536
[3]; first compound 3.162 µM
  relative viability: 0.5
[4]; first compound 0.02 µM
  relative viability: 0.552
[4]; first compound 0.06325 µM
  relative viability: 0.709
[4]; first compound 0.2 µM
  relative viability: 0.702
[4]; first compound 0.6325 µM
  relative viability: 0.513
[4]; first compound 2 µM
  relative viability: 0.358
[5]; first compound 0.02 µM
  relative viability: 1.01
[5]; first compound 0.06325 µM
  relative viability: 0.905
[5]; first compound 0.2 µM
  relative viability: 0.947
[5]; first compound 0.6325 µM
  relative viability: 0.731
[5]; first compound 2 µM
  relative viability: 0.859

## COR-L 105
[1]; first compound 0.1 µM
  relative viability: 0.821
[1]; first compound 1 µM
  relative viability: 0.734
[1]; first compound 3.162 µM
  relative viability: 0.674
[2]; first compound 0.1 µM
  relative viability: 0.564
[2]; first compound 1 µM
  relative viability: 0.816
[2]; first compound 3.162 µM
  relative viability: 0.925
[3]; first compound 0.1 µM
  relative viability: 0.363
[3]; first compound 1 µM
  relative viability: 0.33
[3]; first compound 3.162 µM
  relative viability: 0.345
[4]; first compound 0.02 µM
  relative viability: 0.456
[4]; first compound 0.06325 µM
  relative viability: 0.482
[4]; first compound 0.2 µM
  relative viability: 0.491
[4]; first compound 0.6325 µM
  relative viability: 0.416
[4]; first compound 2 µM
  relative viability: 0.432
[5]; first compound 0.02 µM
  relative viability: 1.15
[5]; first compound 0.06325 µM
  relative viability: 1.26
[5]; first compound 0.2 µM
  relative viability: 1.14
[5]; first compound 0.6325 µM
  relative viability: 0.985
[5]; first compound 2 µM
  relative viability: 1.04

## RERF-LC-KJ
[1]; first compound 0.1 µM
  relative viability: 0.566
[1]; first compound 1 µM
  relative viability: 0.643
[1]; first compound 3.162 µM
  relative viability: 0.593
[2]; first compound 0.1 µM
  relative viability: 0.819
[2]; first compound 1 µM
  relative viability: 0.93
[2]; first compound 3.162 µM
  relative viability: 0.924
[3]; first compound 0.1 µM
  relative viability: 0.834
[3]; first compound 1 µM
  relative viability: 0.872
[3]; first compound 3.162 µM
  relative viability: 0.752
[4]; first compound 0.02 µM
  relative viability: 0.89
[4]; first compound 0.06325 µM
  relative viability: 0.839
[4]; first compound 0.2 µM
  relative viability: 0.847
[4]; first compound 0.6325 µM
  relative viability: 0.843
[4]; first compound 2 µM
  relative viability: 0.848
[5]; first compound 0.02 µM
  relative viability: 0.963
[5]; first compound 0.06325 µM
  relative viability: 1.06
[5]; first compound 0.2 µM
  relative viability: 0.927
[5]; first compound 0.6325 µM
  relative viability: 0.466
[5]; first compound 2 µM
  relative viability: 0.851

## LXF-289
[1]; first compound 0.1 µM
  relative viability: 0.737
[1]; first compound 1 µM
  relative viability: 0.695
[1]; first compound 3.162 µM
  relative viability: 0.681
[2]; first compound 0.1 µM
  relative viability: 0.776
[2]; first compound 1 µM
  relative viability: 0.796
[2]; first compound 3.162 µM
  relative viability: 0.744
[3]; first compound 0.1 µM
  relative viability: 0.212
[3]; first compound 1 µM
  relative viability: 0.215
[3]; first compound 3.162 µM
  relative viability: 0.21
[4]; first compound 0.02 µM
  relative viability: 0.716
[4]; first compound 0.06325 µM
  relative viability: 0.705
[4]; first compound 0.2 µM
  relative viability: 0.67
[4]; first compound 0.6325 µM
  relative viability: 0.672
[4]; first compound 2 µM
  relative viability: 0.68
[5]; first compound 0.02 µM
  relative viability: 0.973
[5]; first compound 0.06325 µM
  relative viability: 0.979
[5]; first compound 0.2 µM
  relative viability: 0.967
[5]; first compound 0.6325 µM
  relative viability: 0.943
[5]; first compound 2 µM
  relative viability: 0.968

## PC-14
[1]; first compound 0.1 µM
  relative viability: 0.754
[1]; first compound 1 µM
  relative viability: 0.962
[1]; first compound 3.162 µM
  relative viability: 0.609
[2]; first compound 0.1 µM
  relative viability: 0.933
[2]; first compound 1 µM
  relative viability: 0.909
[2]; first compound 3.162 µM
  relative viability: 0.92
[3]; first compound 0.1 µM
  relative viability: 0.299
[3]; first compound 1 µM
  relative viability: 0.239
[3]; first compound 3.162 µM
  relative viability: 0.224
[4]; first compound 0.02 µM
  relative viability: 0.861
[4]; first compound 0.06325 µM
  relative viability: 0.704
[4]; first compound 0.6325 µM
  relative viability: 0.625
[4]; first compound 2 µM
  relative viability: 0.608
[5]; first compound 0.02 µM
  relative viability: 1.03
[5]; first compound 0.06325 µM
  relative viability: 1.09
[5]; first compound 0.2 µM
  relative viability: 0.942
[5]; first compound 0.6325 µM
  relative viability: 0.98
[5]; first compound 2 µM
  relative viability: 0.944

## NCI-H650
[1]; first compound 0.1 µM
  relative viability: 0.535
[1]; first compound 1 µM
  relative viability: 0.519
[1]; first compound 3.162 µM
  relative viability: 0.52
[2]; first compound 0.1 µM
  relative viability: 0.715
[2]; first compound 1 µM
  relative viability: 0.683
[2]; first compound 3.162 µM
  relative viability: 0.449
[3]; first compound 0.1 µM
  relative viability: 0.495
[3]; first compound 1 µM
  relative viability: 0.475
[3]; first compound 3.162 µM
  relative viability: 0.377
[4]; first compound 0.02 µM
  relative viability: 0.991
[4]; first compound 0.06325 µM
  relative viability: 1.03
[4]; first compound 0.2 µM
  relative viability: 1.01
[4]; first compound 0.6325 µM
  relative viability: 0.948
[4]; first compound 2 µM
  relative viability: 0.994
[5]; first compound 0.02 µM
  relative viability: 1.04
[5]; first compound 0.06325 µM
  relative viability: 1.07
[5]; first compound 0.2 µM
  relative viability: 1.02
[5]; first compound 0.6325 µM
  relative viability: 1.01
[5]; first compound 2 µM
  relative viability: 1.09

## NCI-H1666
[1]; first compound 0.1 µM
  relative viability: 0.786
[1]; first compound 1 µM
  relative viability: 0.875
[1]; first compound 3.162 µM
  relative viability: 0.875
[2]; first compound 0.1 µM
  relative viability: 1.09
[2]; first compound 1 µM
  relative viability: 0.871
[2]; first compound 3.162 µM
  relative viability: 0.676
[3]; first compound 0.1 µM
  relative viability: 0.849
[3]; first compound 1 µM
  relative viability: 0.808
[3]; first compound 3.162 µM
  relative viability: 0.732
[4]; first compound 0.02 µM
  relative viability: 0.905
[4]; first compound 0.06325 µM
  relative viability: 0.849
[4]; first compound 0.2 µM
  relative viability: 0.914
[4]; first compound 0.6325 µM
  relative viability: 0.868
[4]; first compound 2 µM
  relative viability: 0.851
[5]; first compound 0.02 µM
  relative viability: 0.975
[5]; first compound 0.06325 µM
  relative viability: 1.01
[5]; first compound 0.2 µM
  relative viability: 0.998
[5]; first compound 0.6325 µM
  relative viability: 0.963
[5]; first compound 2 µM
  relative viability: 0.932
